Assay results as given in PubChem BioAssay AID588613 (The Scripps Research Institute Molecular Screening Center, 2011).
Calls of active or inactive are those of the source.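 The calls were made as follows: active = phosphorylated EGFR protein level at least 30% below or above the solvent-only control; inactive = the rest.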

Molecular target: Epidermal growth factor receptor (Homo sapiens) (UniProt P00533)
Assay: p-EGFR protein level shift in DLD1 cells – cell-based, chemiluminescent western blot, powder samples, counter-screen for KLF5 inhibitor project, late-stage follow-up (AID 588613)
Conditions: DLD-1 cells, phospho-EGFR western blot, 24 h; at 10 µM; stronger effect = higher value

Chain of Epidermal growth factor receptor (Homo sapiens) (P00533 whole entry, looked up): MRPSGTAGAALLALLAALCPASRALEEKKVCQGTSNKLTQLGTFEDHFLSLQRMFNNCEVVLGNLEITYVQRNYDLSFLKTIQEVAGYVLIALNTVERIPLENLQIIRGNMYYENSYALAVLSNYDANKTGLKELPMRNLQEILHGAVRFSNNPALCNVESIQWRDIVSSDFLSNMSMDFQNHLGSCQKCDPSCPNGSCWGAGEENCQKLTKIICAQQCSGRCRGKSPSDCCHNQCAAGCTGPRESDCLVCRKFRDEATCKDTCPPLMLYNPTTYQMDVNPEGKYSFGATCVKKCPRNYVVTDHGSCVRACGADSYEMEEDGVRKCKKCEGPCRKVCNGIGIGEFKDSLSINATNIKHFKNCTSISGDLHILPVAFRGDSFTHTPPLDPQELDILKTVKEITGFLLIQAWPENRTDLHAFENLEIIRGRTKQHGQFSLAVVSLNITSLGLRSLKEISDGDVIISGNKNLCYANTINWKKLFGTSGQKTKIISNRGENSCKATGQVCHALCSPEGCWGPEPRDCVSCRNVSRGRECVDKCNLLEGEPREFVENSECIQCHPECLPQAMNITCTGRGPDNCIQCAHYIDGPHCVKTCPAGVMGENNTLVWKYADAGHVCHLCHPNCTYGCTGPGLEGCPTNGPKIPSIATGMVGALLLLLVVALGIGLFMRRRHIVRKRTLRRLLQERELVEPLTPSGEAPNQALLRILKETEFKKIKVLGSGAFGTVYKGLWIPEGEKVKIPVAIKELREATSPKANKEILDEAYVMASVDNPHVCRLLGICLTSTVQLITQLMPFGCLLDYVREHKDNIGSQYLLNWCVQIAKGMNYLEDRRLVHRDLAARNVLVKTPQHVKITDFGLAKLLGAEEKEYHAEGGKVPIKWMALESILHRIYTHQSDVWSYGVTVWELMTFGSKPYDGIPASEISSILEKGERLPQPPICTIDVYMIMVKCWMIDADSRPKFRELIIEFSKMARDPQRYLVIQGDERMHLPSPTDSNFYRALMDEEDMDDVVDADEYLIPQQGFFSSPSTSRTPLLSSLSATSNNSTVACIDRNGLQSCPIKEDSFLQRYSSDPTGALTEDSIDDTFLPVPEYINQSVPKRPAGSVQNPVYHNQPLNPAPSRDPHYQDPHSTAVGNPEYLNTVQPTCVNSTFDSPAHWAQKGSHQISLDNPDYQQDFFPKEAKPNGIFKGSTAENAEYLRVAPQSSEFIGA

inhibition	Structure (SMILES)
46.8%	CN(C(=O)CNC(=O)/C=C/c1cccc(Cl)c1)C1CCS(=O)(=O)CC1
28.2% (inactive)	CN(C(=O)COC(=O)/C=C/c1cccc([N+](=O)[O-])c1)C1CCS(=O)(=O)C1 (stereo not drawn)
60.7%	CN(C(=O)CNC(=O)/C=C/c1cccc(Cl)c1)C1CCS(=O)(=O)C1 (stereo not drawn)
